Results as given in paper PMC2772170 (Journal of medicinal chemistry, 2009).
Like-named read-outs stand apart in the source and are kept apart here.

Key:
ex vivo worms in culture = test: Ex vivo parasite killing, visual examination of cultured worms; parameters: species or system Schistosoma
[1] = NO release on reaction with cysteine, chemiluminescent assay; conditions: for NO donation on reaction with cysteine (in words): chemiluminescent assay
[2] = human, microsomes, 1 h
TGR = target: T1, TGR (Schistosoma mansoni, UniProt Q962Y6); assay type: biochemical; conditions: with TGR; ABTS method, data in supporting information
T1 sequence (Q962Y6 1-598): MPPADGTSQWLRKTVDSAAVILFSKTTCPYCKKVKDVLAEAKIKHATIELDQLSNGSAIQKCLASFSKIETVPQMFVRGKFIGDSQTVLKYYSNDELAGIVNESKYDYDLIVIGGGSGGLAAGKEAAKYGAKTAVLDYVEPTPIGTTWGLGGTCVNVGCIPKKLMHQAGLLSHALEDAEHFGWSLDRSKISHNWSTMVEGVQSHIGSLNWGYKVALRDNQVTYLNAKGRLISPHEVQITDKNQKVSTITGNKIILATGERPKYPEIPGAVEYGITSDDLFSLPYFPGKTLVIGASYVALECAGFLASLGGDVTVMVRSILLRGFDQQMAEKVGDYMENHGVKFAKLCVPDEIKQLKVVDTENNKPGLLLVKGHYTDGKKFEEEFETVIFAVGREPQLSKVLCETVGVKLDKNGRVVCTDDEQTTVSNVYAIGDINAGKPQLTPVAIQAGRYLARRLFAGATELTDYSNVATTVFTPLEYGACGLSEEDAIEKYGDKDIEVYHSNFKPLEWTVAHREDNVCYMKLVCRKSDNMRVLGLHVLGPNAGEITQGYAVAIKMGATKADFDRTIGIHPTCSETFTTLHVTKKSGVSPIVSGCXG

[3] = target: T2, thioredoxin glutathione reductase (TGR) (Schistosoma mansoni, UniProt Q962Y6); assay type: biochemical
T2 sequence (Q962Y6 1-598): T1 sequence (Q962Y6 1-598)

[4] = target: T2, thioredoxin glutathione reductase (TGR); conditions: cited from earlier work
Microsomal stability = conditions: human liver microsomes, 60 minutes at 37 °C
[5] = 10 μM compound, cultured worms, 4 hr
[6] = 10 μM compound, cultured worms, 24 hr
[7] = 10 μM compound, cultured worms, 48 hr

Compound	Ex Vivo Parasite Killing 2 hr (ex vivo worms in culture; 10 μM compound, cultured worms)	Ex Vivo Parasite Killing 4 hr (ex vivo worms in culture; [5])	Ex Vivo Parasite Killing 8 hr (ex vivo worms in culture; 10 μM compound, cultured worms)	Ex Vivo Parasite Killing 72 hr (ex vivo worms in culture; 10 μM compound, cultured worms)	also measured
N#Cc1c(C(=O)c2cccs2)no[n+]1[O-] [Analogue 30]	n.e.	n.e.	n.e.	n.e.	Ex Vivo Parasite Killing 16 hr (ex vivo worms in culture; 10 μM compound, cultured worms): n.e.; Ex Vivo Parasite Killing 24 hr (ex vivo worms in culture; [6]): n.e.; Ex Vivo Parasite Killing 48 hr (ex vivo worms in culture; [7]): n.e.; NO donation on reaction with cysteine (in words) [1]: capable of releasing NO
COc1ccccc1-c1no[n+]([O-])c1C#N [Analogue 21]	n.e.	n.e.			
N#Cc1c(-c2cccc([N+](=O)[O-])c2)no[n+]1[O-] [Analogue 11]	n.e.	n.e.	n.e.		Ex Vivo Parasite Killing 16 hr (ex vivo worms in culture; 10 μM compound, cultured worms): sluggish
N#Cc1c(-c2ccc(F)c(Br)c2)no[n+]1[O-] [Analogue 13]	n.e.	n.e.	curling	100%D	Ex Vivo Parasite Killing 24 hr (ex vivo worms in culture; [6]): 50%D
N#Cc1c(-c2ccc(Cl)cc2)no[n+]1[O-] [Analogue 17]	n.e.	n.e.	n.e.	100%D	Ex Vivo Parasite Killing 16 hr (ex vivo worms in culture; 10 μM compound, cultured worms): sluggish
COc1ccc(-c2no[n+]([O-])c2C#N)cc1 [Analogue 24]	n.e.	n.e.	n.e.	100%D	
N#Cc1c(-c2cc(F)cc(-c3no[n+]([O-])c3C#N)c2)no[n+]1[O-] [Analogue 33]					Ex Vivo Parasite Killing 48 hr (ex vivo worms in culture): 100%D; NO equivalents produced per equivalent of reagent [1]: 1.55 molar equivalents; Microsomal stability, NADPH (+) [2]: 20/51 % remaining; Microsomal stability, NADPH (−) [2]: 20/51 % remaining
Cc1ccc(-c2no[n+]([O-])c2C#N)cc1 [Analogue 25]	n.e.	n.e.	n.e.		
O=Cc1c(-c2ccccc2)no[n+]1[O-] [Analogue 8]					NO release / NO donating ability (in words) (TGR): only modest NO donating abilities
COc1cccc(-c2no[n+]([O-])c2C#N)c1 [Analogue 23]	n.e.	n.e.	n.e.		Ex Vivo Parasite Killing 16 hr (ex vivo worms in culture; 10 μM compound, cultured worms): n.e.
N#Cc1c(-c2cccc(C(F)(F)F)c2)no[n+]1[O-] [Analogue 12]	n.e.	n.e.		100%D	Ex Vivo Parasite Killing 48 hr (ex vivo worms in culture; [7]): 100%D
N#Cc1c(-c2cccc(Br)c2)no[n+]1[O-] [Analogue 14]	n.e.	n.e.		100%D	Ex Vivo Parasite Killing 24 hr (ex vivo worms in culture; [6]): 100%D; Ex Vivo Parasite Killing 48 hr (ex vivo worms in culture; [7]): 100%D
N#Cc1c(-c2ccc(F)cc2)no[n+]1[O-] [Analogue 20]	n.e.	n.e.		100%D	Ex Vivo Parasite Killing 48 hr (ex vivo worms in culture; [7]): 100%D
N#Cc1no[n+]([O-])c1-c1ccccc1 [Analogue 5]					TGR inhibition (in words) [3]: nor was either analogue active versus TGR; Ex vivo worm killing (in words) (ex vivo worms in culture): nor was either analogue active versus TGR or an effective ex vivo worm killing agent; NO release / NO donating ability (in words) (TGR): no appreciable NO release with TGR
N#Cc1c(-c2cccc(O)c2)no[n+]1[O-] [Analogue 19]	n.e.	n.e.		n.e.	Ex Vivo Parasite Killing 16 hr (ex vivo worms in culture; 10 μM compound, cultured worms): n.e.; Ex Vivo Parasite Killing 24 hr (ex vivo worms in culture; [6]): n.e.; Ex Vivo Parasite Killing 48 hr (ex vivo worms in culture; [7]): n.e.
CC(=O)OC[C@H]1O[C@@H]([S-])[C@H](OC(C)=O)[C@@H](OC(C)=O)[C@@H]1OC(C)=O.CCP(CC)CC.[Au+] [auranofin]					TGR inhibition (in words) [4]: potent inhibitor of TGR
N#Cc1c(-c2ccc(Br)cc2)no[n+]1[O-] [Analogue 16]	n.e.	sluggish		100%D	Ex Vivo Parasite Killing 24 hr (ex vivo worms in culture; [6]): 100%D; Ex Vivo Parasite Killing 48 hr (ex vivo worms in culture; [7]): 100%D; Microsomal stability, NADPH (+) (Microsomal stability; with NADPH): 10 % remaining; Microsomal stability, NADPH (−) (Microsomal stability; without NADPH): 67 % remaining
O=C(O)c1c(-c2ccccc2)no[n+]1[O-] [Analogue 9]					NO release / NO donating ability (in words) (TGR): only modest NO donating abilities
N#Cc1c(-c2ccc(C(F)(F)F)cc2)no[n+]1[O-] [Analogue 18]	n.e.	n.e.		100%D	
N#Cc1nonc1-c1ccccc1 [Analogue 4]					TGR inhibition (in words) [3]: nor was either analogue active versus TGR; Ex vivo worm killing (in words) (ex vivo worms in culture): nor was either analogue active versus TGR or an effective ex vivo worm killing agent; NO release / NO donating ability (in words) (TGR): no appreciable NO release with TGR
COc1cc(-c2no[n+]([O-])c2C#N)cc(OC)c1OC [Analogue 22]	n.e.	n.e.			Ex Vivo Parasite Killing 16 hr (ex vivo worms in culture; 10 μM compound, cultured worms): sluggish
N#Cc1c(-c2cccc(Cl)c2)no[n+]1[O-] [Analogue 15]	n.e.	sluggish		100%D	
[O-][n+]1onc(-c2ccccc2)c1CO [Analogue 7]					NO release / NO donating ability (in words) (TGR): only a weak NO donor
N#Cc1c(-c2ccc(-c3ccccc3)cc2)no[n+]1[O-] [Analogue 26]	n.e.	n.e.	sluggish		Ex Vivo Parasite Killing 16 hr (ex vivo worms in culture; 10 μM compound, cultured worms): sluggish; Ex Vivo Parasite Killing 24 hr (ex vivo worms in culture; [6]): 20%D
N#Cc1c(-c2ccc(O)cc2)no[n+]1[O-] [Analogue 27]	n.e.	n.e.	sluggish	100%D	
N#Cc1c(-c2ccco2)no[n+]1[O-] [Analogue 28]	n.e.	n.e.		100%D	Ex Vivo Parasite Killing 48 hr (ex vivo worms in culture; [7]): 100%D; NO release / NO donating ability (in words) (TGR): good NO release profiles
Cc1c(-c2ccccc2)no[n+]1[O-] [Analogue 6]					NO donation on reaction with cysteine (in words) [1]: nor was 6 capable of NO donation; NO release / NO donating ability (in words) (TGR): inactive as a NO donor
N#Cc1c(-c2cccc(-c3no[n+]([O-])c3C#N)c2)no[n+]1[O-] [Analogue 31]					Ex Vivo Parasite Killing 4 hr (ex vivo worms in culture): curling; Ex Vivo Parasite Killing 24 hr (ex vivo worms in culture): 100%D; Ex Vivo Parasite Killing 48 hr (ex vivo worms in culture): 100%D
